Assay results from ChEMBL document CHEMBL6114943, “Engineered Cyclotide Blocks Neuronal Excitotoxicity” (J Med Chem, 2025).
Blank lines part the entries; values can stand above or below the compound they belong to. Active and inactive are the calls of the source. No cut-off for these calls is given here. Where a SMILES comes first, the peptide text is derived from it. Bridges are numbered along the chain shown (N, C = ends).

Columns and labels:
[1] = Stability in C57BL/6 mouse plasma assessed as half life at 100 uM incubated for 300 min by HPLC analysis; type: ADME, cell-free
[2] = Stability in C57BL/6 mouse plasma assessed as parent compound remaining at 100 uM measured after 5 hrs by HPLC analysis relative to control; type: ADME, cell-free; conditions: read-out: Stability
[3] = Stability in C57BL/6 mouse plasma assessed as drug degradation at 100 uM measured < 15 mins in presence of alteplase by HPLC analysis; type: ADME, cell-free; conditions: 0.25 h
[4] = Stability in C57BL/6 mouse plasma assessed as drug degradation at 100 uM measured after 5 hrs in presence of alteplase by HPLC analysis; type: ADME, cell-free
[5] = Stability in C57BL/6 mouse plasma assessed as parent compound remaining at 100 uM measured after 24 hrs by HPLC analysis; type: ADME, cell-free; conditions: read-out: Stability
[6] = Stability in C57BL/6 mouse plasma assessed as parent compound remaining at 100 uM measured after 24 hrs in presence of alteplase by HPLC analysis relative to control; type: ADME, cell-free; conditions: read-out: Stability
[7] = Stability in C57BL/6 mouse plasma assessed as drug degradation by measuring parent compound remaining at 100 uM measured after 5 hrs in presence of alteplase by HPLC analysis relative to control; type: ADME, cell-free; conditions: read-out: Stability
[8] = Stability in C57BL/6 mouse plasma assessed as drug degradation by measuring parent compound remaining at 100 uM measured after 5 hrs by HPLC analysis relative to control; type: ADME, cell-free; conditions: read-out: Stability
[9] = tested on: Neuron; experiment: Cytotoxicity against mouse primary neuron upto 1 uM incubated for 24 hrs; type: toxicity, cell-based
[10] = tested on: Neuron; experiment: Neuroprotective activity against NMDA-induced cell death in mouse primary neuron assessed as reduction in cell viability preincubated with compound for 1 hrs followed by NMDA addition and measured after 1 hrs by PI staining based analysis relative to control; type: functional; conditions: time 2.0 hrs
[11] = tested on: Mus musculus; experiment: Neuroprotective activity against pilocarpine-induced seizure in C57BL6 mouse assessed as survival rate at 3 nmol/g, iv pretreated with compound for 1 hrs followed by pilocarpine induction and measured after 2 hrs relative to control; type: functional; conditions: time 3 hrs
[12] = Drug uptake in mouse Primary neuron at 500 nM incubated for 60 mins by inverted confocal microscopic analysis relative to control; type: ADME, cell-based; conditions: 1 h, 0.5 µM
[13] = Drug uptake in mouse Primary neuron at 100 nM incubated for 60 mins by inverted confocal microscopic analysis relative to control; type: ADME, cell-based; conditions: 1 h, 0.1 µM
[14] = Drug uptake in mouse Primary neuron at 100 nM measured at 60 mins by inverted confocal microscopic analysis; type: ADME, cell-based; conditions: 1 h, 0.1 µM
[15] = tested on: Neuron; experiment: Neuroprotective activity against NMDA-induced cell death in mouse primary neuron assessed as cell viability preincubated with compound for 1 hrs followed by NMDA addition and measured after 1 hrs by PI staining based analysis relative to control; type: functional; conditions: time 2 hrs
[16] = tested on: Neuron; experiment: Neuroprotective activity against Amyloid beta-induced cell death in mouse primary neuron assessed as cell viability preincubated with compound for 1 hrs followed by Amyloid beta addition and measured after 1 hrs by PI staining based analysis relative to control; type: functional; conditions: time 2 hrs
[17] = molecular target: Disks large homolog 4 (Homo sapiens, UniProt P78352); experiment: Binding affinity to PSD-95 (unknown origin) assessed as binding constant (Kd) by MST analysis
[18] = Toxicity in C57BL/6 mouse assessed as histological changes in kidney at 3 nmol/g, iv administered 3 consecutive days by H and E staining based analysis; type: organism-based; conditions: in vivo
[19] = Toxicity in C57BL/6 mouse assessed as histological changes in liver at 3 nmol/g, iv administered 3 consecutive days by H and E staining based analysis; type: organism-based; conditions: in vivo
[20] = Toxicity in C57BL/6 mouse assessed as histological changes in lung at 3 nmol/g, iv administered 3 consecutive days by H and E staining based analysis; type: organism-based; conditions: in vivo
[21] = Toxicity in C57BL/6 mouse assessed as histological changes in spleen at 3 nmol/g, iv administered 3 consecutive days by H and E staining based analysis; type: organism-based; conditions: in vivo
[22] = tested on: Neuron; experiment: Neuroprotective activity against NMDA-induced cell death in mouse primary neuron assessed as reduction in cell viability at 100 nM preincubated with compound for 1 hrs followed by NMDA addition and measured after 1 hrs by PI staining based analysis (reference value: 60.01 +/- 4%); type: functional; conditions: time 2 hrs
[23] = tested on: Neuron; experiment: Neuroprotective activity against Amyloid beta-induced cell death in mouse primary neuron assessed as cell viability at 100 nM preincubated with compound for 1 hrs followed by Amyloid beta addition and measured after 1 hrs by PI staining based analysis; type: functional; conditions: time 2.0 hrs
[24] = tested on: Mus musculus; experiment: Neuroprotective activity against pilocarpine-induced seizure in C57BL6 mouse assessed as survival rate at 30 nmol/g, po pretreated with compound for 1 hrs followed by pilocarpine induction and measured after 2 hrs relative to control; type: functional; conditions: time 3 hrs

Sequence of Disks large homolog 4 (P78352 whole entry): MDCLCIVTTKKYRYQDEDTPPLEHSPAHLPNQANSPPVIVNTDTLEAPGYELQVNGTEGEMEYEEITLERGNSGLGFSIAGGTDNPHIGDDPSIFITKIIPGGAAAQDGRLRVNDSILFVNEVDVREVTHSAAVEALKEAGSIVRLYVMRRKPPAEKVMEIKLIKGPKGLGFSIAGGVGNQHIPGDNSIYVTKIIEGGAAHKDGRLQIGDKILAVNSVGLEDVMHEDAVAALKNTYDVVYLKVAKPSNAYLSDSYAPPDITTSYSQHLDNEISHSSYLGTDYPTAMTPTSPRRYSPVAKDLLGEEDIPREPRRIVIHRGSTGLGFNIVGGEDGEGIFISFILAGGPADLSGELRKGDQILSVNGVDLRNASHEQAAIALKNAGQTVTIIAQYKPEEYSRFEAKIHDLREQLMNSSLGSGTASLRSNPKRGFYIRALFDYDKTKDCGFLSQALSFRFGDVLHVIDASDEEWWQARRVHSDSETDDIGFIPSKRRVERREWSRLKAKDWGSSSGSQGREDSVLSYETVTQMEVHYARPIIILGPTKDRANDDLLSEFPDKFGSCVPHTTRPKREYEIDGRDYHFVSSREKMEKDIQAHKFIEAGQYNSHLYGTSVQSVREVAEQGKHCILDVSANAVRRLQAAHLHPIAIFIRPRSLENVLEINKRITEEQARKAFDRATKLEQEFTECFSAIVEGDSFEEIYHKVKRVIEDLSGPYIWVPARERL

Structure (SMILES): CC[C@H](C)[C@@H]1NC(=O)[C@H](CO)NC(=O)[C@H](CO)NC(=O)[C@H](CC(C)C)NC(=O)[C@H](CCCCN)NC(=O)[C@@H]2CSSC[C@@H]3NC(=O)[C@H](CC(=O)O)NC(=O)[C@H](CO)NC(=O)[C@H](CC(=O)O)NC(=O)[C@H](CCCNC(=N)N)NC(=O)[C@H](CCCNC(=N)N)NC(=O)[C@@H]4CSSC[C@H](NC(=O)[C@H]([C@@H](C)CC)NC(=O)[C@H](CSSC[C@H](NC(=O)[C@H](C)NC(=O)[C@H](CC(=O)O)NC(=O)[C@H](C)NC(=O)[C@H](CCC(=O)O)NC1=O)C(=O)N1CCC[C@H]1C(=O)N[C@@H](CCCNC(=N)N)C(=O)N[C@@H]([C@@H](C)CC)C(=O)N[C@@H](CC(C)C)C(=O)N[C@@H](CCCNC(=N)N)C(=O)N[C@@H](CCCNC(=N)N)C(=O)N[C@@H](CCCNC(=N)N)C(=O)N[C@@H](CCCNC(=N)N)C(=O)N4)NC(=O)[C@H](C)NC(=O)CNC(=O)[C@@H]1CCCN1C3=O)C(=O)N[C@@H](CCCNC(=N)N)C(=O)NCC(=O)N[C@@H](CC(N)=O)C(=O)NCC(=O)N[C@@H](Cc1ccc(O)cc1)C(=O)N2 (cyclo(ACICRGNGYCKLSSIEADACPRILRRRRCRRDSDCPG); disulfide 2-20, 4-29, 10-35)
Activity [9]: Non-toxic | Activity [10]: inactive | Survival [11]: 30%

Structure (SMILES): CC[C@H](C)[C@@H]1NC(=O)[C@@H]2CSSC[C@@H]3NC(=O)[C@H](C(C)C)NC(=O)[C@H](CC(=O)O)NC(=O)[C@H](CO)NC(=O)[C@H](CCC(=O)O)NC(=O)[C@H]([C@@H](C)CC)NC(=O)[C@H](CO)NC(=O)[C@H](CO)NC(=O)[C@H](CC(C)C)NC(=O)[C@H](CCCCN)NC(=O)[C@@H]4CSSC[C@H](NC(=O)[C@H](CC(=O)O)NC(=O)[C@H](CO)NC(=O)[C@H](CC(=O)O)NC(=O)[C@H](CCCNC(=N)N)NC(=O)[C@H](CCCNC(=N)N)NC(=O)[C@H](CSSC[C@H](NC1=O)C(=O)N[C@@H](CCCNC(=N)N)C(=O)NCC(=O)N[C@@H](CC(N)=O)C(=O)NCC(=O)N[C@@H](Cc1ccc(O)cc1)C(=O)N4)NC(=O)[C@H](CCCCN)NC(=O)[C@H](CCCCN)NC(=O)[C@H](CC(C)C)NC(=O)[C@H]([C@@H](C)CC)NC(=O)[C@H](CCCCN)NC(=O)[C@@H]1CCCN1C3=O)C(=O)N1CCC[C@H]1C(=O)NCC(=O)N[C@@H](C)C(=O)N2 (cyclo(ACICRGNGYCKLSSIESDVCPKILKKCRRDSDCPG); disulfide 2-20, 4-27, 10-33) [listing 1 of 2 here]
Drug uptake [12]: 70.6% | Drug uptake [13]: Not_active | Drug uptake [14]: Active | Activity [9]: Non-toxic

Structure (SMILES): CC[C@H](C)[C@@H]1NC(=O)[C@@H]2CSSC[C@@H]3NC(=O)[C@H](C(C)C)NC(=O)[C@H](CC(=O)O)NC(=O)[C@H](CO)NC(=O)[C@H](CCC(=O)O)NC(=O)[C@H]([C@@H](C)CC)NC(=O)[C@H](CO)NC(=O)[C@H](CO)NC(=O)[C@H](CC(C)C)NC(=O)[C@H](CCCCN)NC(=O)[C@@H]4CSSC[C@H](NC(=O)[C@H](CC(=O)O)NC(=O)[C@H](CO)NC(=O)[C@H](CC(=O)O)NC(=O)[C@H](CCCNC(=N)N)NC(=O)[C@H](CCCNC(=N)N)NC(=O)[C@H](CSSC[C@H](NC1=O)C(=O)N[C@@H](CCCNC(=N)N)C(=O)NCC(=O)N[C@@H](CC(N)=O)C(=O)NCC(=O)N[C@@H](Cc1ccc(O)cc1)C(=O)N4)NC(=O)[C@H](CCCCN)NC(=O)[C@H](CCCCN)NC(=O)[C@H](CC(C)C)NC(=O)[C@H]([C@@H](C)CC)NC(=O)[C@H](CCCCN)NC(=O)[C@@H]1CCCN1C3=O)C(=O)N1CCC[C@H]1C(=O)NCC(=O)N[C@@H](C)C(=O)N2 (cyclo(ACICRGNGYCKLSSIESDVCPKILKKCRRDSDCPG); disulfide 2-20, 4-27, 10-33) [listing 2 of 2 here]
Activity [15]: 31.8% | Activity [16]: 32.6%

Structure (SMILES): CC[C@H](C)[C@H](NC(=O)[C@H](CO)NC(=O)[C@H](CO)NC(=O)[C@H](CC(C)C)NC(=O)[C@H](CCCCN)NC(=O)[C@H](CCCNC(=N)N)NC(=O)[C@H](CCCNC(=N)N)NC(=O)[C@H](CCCNC(=N)N)NC(=O)[C@H](CCC(N)=O)NC(=O)[C@H](CCCNC(=N)N)NC(=O)[C@H](CCCNC(=N)N)NC(=O)[C@H](CCCCN)NC(=O)[C@H](CCCCN)NC(=O)[C@H](CCCNC(=N)N)NC(=O)CNC(=O)[C@@H](N)Cc1ccc(O)cc1)C(=O)N[C@@H](CCC(=O)O)C(=O)N[C@@H](CO)C(=O)N[C@@H](CC(=O)O)C(=O)N[C@H](C(=O)O)C(C)C [NERINETIDE]
Activity [22]: 13.12% | Activity [23]: Active | Survival [11]: 85% | Survival [24]: 50%

Second part, led by results:

half-life at 100 µM [1]: ~45 min | remaining at 5 h, 100 µM [2]: 9% | Stability [3]: Unstable
Structure (SMILES): CC[C@H](C)[C@H](NC(=O)[C@H](CO)NC(=O)[C@H](CO)NC(=O)[C@H](CC(C)C)NC(=O)[C@H](CCCCN)NC(=O)[C@H](CCCNC(=N)N)NC(=O)[C@H](CCCNC(=N)N)NC(=O)[C@H](CCCNC(=N)N)NC(=O)[C@H](CCC(N)=O)NC(=O)[C@H](CCCNC(=N)N)NC(=O)[C@H](CCCNC(=N)N)NC(=O)[C@H](CCCCN)NC(=O)[C@H](CCCCN)NC(=O)[C@H](CCCNC(=N)N)NC(=O)CNC(=O)[C@H](Cc1ccc(O)cc1)NC(=O)c1ccc(C(=O)[O-])cc1-c1c2ccc(=[N+](C)C)cc-2oc2cc(N(C)C)ccc12)C(=O)N[C@@H](CCC(=O)O)C(=O)N[C@@H](CO)C(=O)N[C@@H](CC(=O)O)C(=O)N[C@H](C(=O)O)C(C)C

Stability [4]: Unstable | remaining at 24 h, 100 µM [5]: 80% | remaining at 24 h, 100 µM [6]: 80% | remaining at 5 h, 100 µM [7]: 82% | remaining at 5 h, 100 µM [8]: 85%
Structure (SMILES): CC[C@@H](C)[C@@H](NC(=O)[C@@H](CO)NC(=O)[C@@H](CO)NC(=O)[C@@H](CC(C)C)NC(=O)[C@@H](CCCCN)NC(=O)[C@@H](CCCNC(=N)N)NC(=O)[C@@H](CCCNC(=N)N)NC(=O)[C@@H](CCCNC(=N)N)NC(=O)[C@@H](CCC(N)=O)NC(=O)[C@@H](CCCNC(=N)N)NC(=O)[C@@H](CCCNC(=N)N)NC(=O)[C@@H](CCCCN)NC(=O)[C@@H](CCCCN)NC(=O)[C@@H](CCCNC(=N)N)NC(=O)CNC(=O)[C@@H](Cc1ccc(O)cc1)NC(=O)c1ccc(C(=O)[O-])cc1-c1c2ccc(=[N+](C)C)cc-2oc2cc(N(C)C)ccc12)C(=O)N[C@H](CCC(=O)O)C(=O)N[C@H](CO)C(=O)N[C@H](CC(=O)O)C(=O)N[C@@H](C(=O)O)C(C)C

Kd [17]: 1200 nM
Structure (SMILES): CC[C@H](C)[C@H](NC(=O)[C@H](CO)NC(=O)[C@H](CO)NC(=O)[C@H](CC(C)C)NC(=O)[C@H](CCCCN)NC(=O)[C@H](CCCN=C(N)N)NC(=O)[C@H](CCCN=C(N)N)NC(=O)[C@H](CCCN=C(N)N)NC(=O)[C@H](CCC(N)=O)NC(=O)[C@H](CCCN=C(N)N)NC(=O)[C@H](CCCN=C(N)N)NC(=O)[C@H](CCCCN)NC(=O)[C@H](CCCCN)NC(=O)[C@H](CCCN=C(N)N)NC(=O)CNC(=O)[C@@H](N)Cc1ccc(O)cc1)C(=O)N[C@@H](CCC(=O)O)C(=O)N[C@@H](CO)C(=O)N[C@@H](CC(=O)O)C(=O)N[C@H](C(=O)O)C(C)C [NERINETIDE]
Activity [9]: Non-toxic | Activity [18]: Non-toxic | Activity [19]: Non-toxic | Activity [20]: Non-toxic | Activity [21]: Non-toxic
